One assay has as its system honeybees. In words: Test for Confirmation of Honeybee Repelling Effect 1, 2, 3 (feeding station with 40% sugar water). In kind it is in vivo. To be noted: 2 % strength. The text has this: The following were used as the test samples for Examples: 2% by weight per volume ethanol solutions of octane (a-1), tetradecane (a-2), heptadecane (a-3), nonadecane (a-4), 2-acetylfuran (b-1), 5-methyl-2-furaldehyde (b-2), furfural (b-3), furaneol (c-1), 2-acetylpyrrole (d-1), 1-benzylpyrrole (d-2), 1-octanol (e-1), 1-dodecanol (e-2), and 1-octadecanol (e-3), respectively; and 2% by weight per volume aqueous solutions of furfuryl alcohol (b-4), sotolon (c-2), and α-angelicalactone (c-3), respectively.
The following were used as the test samples for Comparative Examples: 2% by weight per volume ethanol solutions of eicosane (carbon number 20, p-1), heneicosane (carbon number 21, p-2), 2-methyloctane (branched alkane, p-3), tributyl o-acetylcitrate (p-4), and 1-methylpyrrole (p-5), respectively; and 2% by weight per volume aqueous solutions of 2-methyltetrahydrofuran-3-one (p-6) and acetic acid (p-7), respectively.
Ethanol alone and water alone were used as samples for correction.
The cotton pads 13 were impregnated with 40% sugar water (80 g), after which disposable wooden chopsticks 15 (80 mm in length) were placed over the cotton pads on the lid surface as “landing areas,” for use as “test insect (honeybee) feeding station 1” 10.
A nest box of test insects (honeybees) (1 colony: approx. 6,000 bees) was placed at the center of a glass hothouse (bottom face: 5 m×10 m, height (highest part): 3 m, temperature: 25° C.), and the aforementioned “test insect (honeybee) feeding station 1” was installed at a location 2 meters away from the nest box.
After confirming that at least five test insects (honeybees) were feeding at the above “test insect (honeybee) feeding station 1” installed in the hothouse, test 1 was conducted to measure the “approaching count (Mz)” and “landing count (My)” and calculate the “landing rate (Mx).”
Next, the “test insect (honeybee) feeding station 1” installed in the hothouse was replaced with each “test insect (honeybee) feeding station 2” which was let to stand still for 5 minutes, after which test 2 was conducted to measure the “approaching count (Nz)” and “landing count (Ny)” and calculate the “landing rate (Nx).”
Approaching count: Total number of times a honeybee has approached within 25 cm of the cotton wools at the feeding station during 5 minutes
Landing count: Total number of honeybees that have remained for at least 1 second on the cotton pads at the feeding station during 5 minutes
Landing rate (%): (Landing count/Approaching count)×100
The “repelling rate Q” and “corrected repelling rate R” were calculated from the above “landing rates” using the calculation formula below. For the “repelling rate of sample for correction” used to calculate the “corrected repelling rate R,” the repelling rate of each of the samples for correction above (ethanol alone or water alone being a solvent for the active ingredient) was used.
Repelling rate Q (%)={(Mx)−(Nx)}/(Mx)×100
Corrected repelling rate R (%)={Repelling rate of test sample−Repelling rate of sample for correction}/{100−Repelling rate of sample for correction}×100
The following were used as the test samples for Examples: 0.1% by weight per volume ethanol solutions of 3-methyl-2-butanol (e-4), carvacrol (x-1), isoeugenol (x-2), cinnamyl alcohol (x-3), diacetone alcohol (x-4), α-amylcinnamaldehyde (x-5), 3-methyl-2-butenal (x-6), valeraldehyde (x-7), ethyl cinnamate (x-8), methyl cinnamate (x-9), ethyl isovalerate (x-10), isoamyl formate (x-11), 5-ethyl-2-methylpyridine (x-12), 2-(3-phenylpropyl)pyridine (x-13), 2,6-dimethylpyridine (x-14), ß-ionone (x-15), 2-acetylthiazole (x-16), butylamine (x-17), and citronella oil (x-18), respectively; and a 0.1% by weight per volume aqueous solution of (3-amino-3-carboxypropyl)dimethylsulfonium chloride (x-19).
`OCc1ccco1` [b-4, furfuryl alcohol]: the “Corrected repelling rate R (%)” value is 94.8%.

The same assay, now with this note: Test 1; 2% by weight per volume solution.
For `CCCCCCCC` [a-1, octane], the “repelling effect / repelled behaviors of honeybees (in words)” value is listed as “excellent repelling effect”. Turning to `CCCCCCCCCCCCCC` [a-2, tetradecane], the “repelling effect / repelled behaviors of honeybees (in words)” value is recorded as “excellent repelling effect”. On the same count and under the same terms, with `CC1=C(O)C(=O)OC1C` (stereo not drawn) [c-2, sotolon] the entry was “excellent repelling effect”.

Still in this assay, the particulars now being: Test 1; honeybees; 2% by weight per volume solution, 5 mL sprayed (active ingredient 0.1 g).
`CCCCCCCC` [a-1, octane]: the “Corrected repelling rate R (%)” value was 57.0%. Same read-out and setting: with `CCCCCCCCCCCCCC` [a-2, tetradecane] the figure was 96.5%; with `CC(=O)c1ccco1` [b-1, 2-acetylfuran], 60.3%. Same read-out and setting: then `CC1=C(O)C(=O)C(C)O1` (stereo not drawn) [c-1, furaneol], with 44.0%; and `CC1=C(O)C(=O)OC1C` (stereo not drawn) [c-2, sotolon], with 79.7%.

The assay is the same for the next values; noted with them: Test 3; 0.1% by weight per volume solution, 5 mL.
With `CCCOC(=O)c1ccc(O)cc1` [y-16, propyl 4-hydroxybenzoate], the “Corrected repelling rate (%) Honeybees” value worked out at 89.7%.

As to `CC(=O)OCc1ccccc1` [y-19, benzyl acetate], the “Corrected repelling rate (%) Honeybees” value was 83.2%. Still for that read-out and setting: then `CC(C)COC(=O)Cc1ccccc1` [y-21, isobutyl phenylacetate], with 80.5%; and `CCC(=O)OCc1ccccc1` [y-23, benzyl propionate], with 26.0%. On the same count and under the same terms, with `CC(=O)OC1CC(C)CCC1C(C)C` (stereo not drawn) [y-26, menthyl acetate] the figure was 76.4%; with `CC(=O)OC(C)(C)C1CC=C(C)CC1` (stereo not drawn) [y-29, terpinyl acetate], 81.2%; with `CC(=O)OCCC(C)CCC=C(C)C` (stereo not drawn) [y-30, citronellyl acetate], 91.1%. On the same count and under the same terms, then `C/C=C(\C)C(=O)OC/C=C(\C)CCC=C(C)C` [y-31, geranyl tiglate], with 70.3%; and `CNc1ccccc1C(=O)OC` [y-34, methyl N-methylanthranilate], with 78.6%. As to `CCCCOC(=O)CCC` [y-35, butyl butyrate], the “Corrected repelling rate (%) Honeybees” value is on record as 61.7%. The same measure, in the same setting: with `CCCCCCCC(=O)OCCCC` [y-36, butyl n-octanoate] the figure was 52.0%; with `CCCCCCCCCC(=O)OCC` [y-38, ethyl decanoate], 58.7%; with `CCCCCCCCCCCCCCC(=O)OCC` [y-40, ethyl pentadecanoate], 77.6%. Still for that read-out and setting: then `Cc1cnc(C)c(C)n1` [y-55, 2,3,5-trimethylpyrazine], with 80.6%.

Regarding `CCc1nccnc1CC` [y-56, 2,3-diethylpyrazine], the “Corrected repelling rate (%) Honeybees” value is 57.0%.

On to `Cc1cnccn1` [y-58, 2-methylpyrazine], for which the “Corrected repelling rate (%) Honeybees” value is listed as 55.0%.

Consider `CCc1nccnc1C` [y-59, 2-ethyl-3-methylpyrazine], for which the “Corrected repelling rate (%) Honeybees” value is recorded as 72.8%. Same read-out and setting: then `Cc1cncc(C)n1` [y-60, 2,6-dimethylpyrazine], with 35.4%; and `O=C1CCCO1` [y-64, γ-butyrolactone], with 27.5%. With `CC(=O)c1ccc2ccccc2c1` [y-67, 2′-acetonaphtone], the “Corrected repelling rate (%) Honeybees” value stood at 91.0%. The same measure, in the same setting: then `CC(=O)c1ccc(C)cc1` [y-68, 4-methylacetophenone], with 84.3%; and `CC(=O)CC(C)=O` [y-70, acetylacetone], with 21.5%. Same read-out and setting: then `CC(=O)/C=C/C1C(C)=CCCC1(C)C` (stereo not drawn) [y-71, α-ionone], with 90.0%; and `CCCCCC(=O)O` [y-72, hexanoic acid], with 89.4%; and `CCCCCCCCCCCCCCCCCC(=O)O` [y-74, stearic acid], with 33.7%.

On to `O=C(O)c1ccc(O)cc1` [y-77, 4-hydroxybenzoic acid], for which the “Corrected repelling rate (%) Honeybees” value amounted to 80.1%. Still for that read-out and setting: with `c1ccc2scnc2c1` [y-78, benzothiazole] the figure was 87.7%. The same measure, in the same setting: with `Cc1ccc2ncccc2c1` [y-80, 6-methylquinoline] the figure was 74.7%; with `O=C(O)c1ccnc2ccccc12` [y-82, 4-quinolinecarboxylic acid], 55.5%. Same read-out and setting: with `Cc1cccc2nccnc12` [y-83, 5-methylquinoxaline] the figure was 78.7%; with `Sc1ccc2ccccc2c1` [y-88, 2-naphthalenethiol], 74.6%; with `Cc1cccc2c(C)cccc12` [y-89, 1,5-dimethylnaphthalene], 88.8%. For `CN1CCCC1` [y-92, 1-methylpyrrolidine], the “Corrected repelling rate (%) Honeybees” value was 25.9%. The same measure, in the same setting: then `COC[C@@H]1CCCN1` [y-93, (S)-2-(methoxymethyl)pyrrolidine], with 66.9%; and (−)-menthyl succinate [y-32], with 57.7%.

Staying with this assay, now noted: Test 3; 2.0% by weight per volume solution, 5 mL.
Take `CCOC(=O)Cc1ccccc1` [y-24, ethyl phenylacetate]: the “Corrected repelling rate (%) Honeybees” value is reported as 55.5%. The same measure, in the same setting: with `CCCCCCCC(=O)OCC` [y-48, ethyl octanoate] the figure was 94.1%; with `CC(C)CCOC(=O)CC(C)C` [y-52, isoamyl isovalerate], 23.5%; with `CC(=O)OCCC(C)C` [y-53, isoamyl acetate], 23.0%. Same read-out and setting: then `CCc1cccnc1` [y-62, 3-ethylpyridine], with 58.3%. On the same count and under the same terms, then `CC(=O)c1ccccc1` [y-69, acetophenone], with 98.9%; and `c1cnc2c(n1)CCCC2` [y-86, 5,6,7,8-tetrahydroquinoxaline], with 73.2%. For `C=Cc1ccc(OC)cc1` [y-90, 4-methoxystyrene], the “Corrected repelling rate (%) Honeybees” value is reported as 95.6%. Same read-out and setting: with `CCCCSCCCC` [y-94, butyl sulfide] the figure was 17.2%.

The subject of a further assay is stink bugs. In words: Test for Confirmation of Stink Bug Behaviors against Active Ingredients 1, 2, 3 (treated filter paper).
Settings: not given
It is filed as in vivo, southern green stink bugs. The text has this:
The test samples in “Test for Confirmation of Honeybee Repelling Effect 1” above were used.
A liquid calcium carbonate/ethanol dispersion was applied on the entire interior wall of a KP cup (100 mm in diameter×90 mm in height) and air-dried, after which a filter paper (90 mm in diameter) was fixed on the bottom face of the KP cup using double-sided tape. A different filter paper (90 mm in diameter) was cut along its diameter and the resulting semicircle-shaped paper was uniformly treated with 400 μL of each test sample or sample for correction, and then placed over the filter paper fixed on the aforementioned bottom face of the KP cup by allowing the circular parts to overlap, for use as a testing device.
The “repelling rate Y” and “corrected repelling rate Z” were calculated from the above “time A (sec)” and “time B (sec)” using the calculation formula below. For the “repelling rate of sample for correction” used to calculate the “corrected repelling rate Z,” the repelling rate of each of the samples for correction above (ethanol alone or water alone being a solvent for the active ingredient) was used.
Corrected repelling rate Z (%)={Repelling rate of test sample−Repelling rate of sample for correction}/{100−Repelling rate of sample for correction}×100
For the test samples, the test samples in “Test for Confirmation of Honeybee Repelling Effect 2” above were used.
On to `CCCCCCCC1CCC(=O)O1` (stereo not drawn) [y-63, γ-undecalactone], for which the “repelling of stink bugs and other injurious insects to be exterminated (in words)” value is “not repelling stink bugs”.

The same assay, now with this note: 0.5 h, 2 % strength.
As to `OCc1ccco1` [b-4, furfuryl alcohol], the “Corrected repelling rate (%) Stinkbugs” value is less than 0%.

Staying with this assay, now noted: Test 1; 2% by weight per volume solution, 400 μL on filter paper, 30 minutes.
As to `CCCCCCCC` [a-1, octane], the “Corrected repelling rate (%) Stinkbugs” value was less than 0%. The same measure, in the same setting: with `CCCCCCCCCCCCCC` [a-2, tetradecane] the figure was less than 0%; with `CC(=O)c1ccco1` [b-1, 2-acetylfuran], less than 0%; with `CC1=C(O)C(=O)C(C)O1` (stereo not drawn) [c-1, furaneol], less than 0%.

Turning to `CC1=C(O)C(=O)OC1C` (stereo not drawn) [c-2, sotolon], the “Corrected repelling rate (%) Stinkbugs” value is listed as less than 0%.

Values taken from US20230210116A1, “HONEYBEE REPELLENT” (EARTH CORPORATION, priority 2020, published 2023).
